46 molecules from ChEMBL document CHEMBL4364293, “Design, Synthesis, and Structure-Activity Relationship of 7-Propanamide Benzoxaboroles as Potent Anticancer Agents” (J Med Chem, 2019) can be followed below.

One assay concerns SK-OV-3. Put plainly: Antiproliferative activity against human SKOV3 cells after 72 hrs by MTT assay. It is filed as functional, cell-based. Particulars: SK-OV-3, 72 h.
The next assay relates to WI-38. Nature of the assay: Cytotoxicity against human WI38 cells after 72 hrs by MTT assay. It is filed as cell-based. Particulars: WI-38, 72 h.
The next assay has as its system MDA-MB-231. Nature of the assay: Antiproliferative activity against human MDA-MB-231 cells after 72 hrs by MTT assay. It is filed as functional, cell-based. Particulars: MDA-MB-231, 72 h.
In another assay the test system is HCT-116. Nature of the assay: Antiproliferative activity against human HCT116 cells after 72 hrs by MTT assay. It is filed as functional, cell-based. As to conditions: HCT-116, 72 h. In general terms: Formazan colour is commonly taken as a measure of viable cells.

Broadly, the IC50 is the concentration that gives 50% inhibition. The low end stands for greater potency in that assay, the high end for weaker potency in that assay.

Some results are limits rather than exact numbers.

As to `CCOC(=O)c1ccc(NC(=O)CCc2cccc3c2B(O)OC3)cc1`, the IC50 in the assay on SK-OV-3, in the assay on WI-38, in the assay on MDA-MB-231 and with HCT-116 was above 100 µM each time.

On to `O=C(CCc1cccc2c1B(O)OC2)NC1CCCCC1`, for which the IC50 with SK-OV-3, in the assay with WI-38, in the assay with MDA-MB-231 and in the assay with HCT-116 was above 100 µM in each case.

`C#Cc1ccc(NC(=O)CCc2cccc3c2B(O)OC3)cc1`: the IC50 with SK-OV-3 is 6.3 µM; with WI-38, above 100 µM; in the assay with MDA-MB-231, 6.6 µM; in the assay on HCT-116 it was 45 µM.

As for `O=C(CCc1cccc2c1B(O)OC2)Nc1cccc(-c2ccc(C(F)(F)F)cc2)c1`, the IC50 in the assay with SK-OV-3 came to 0.5 µM; in the assay with WI-38, 26 µM; in the assay on MDA-MB-231 it was 0.51 µM; in the assay with HCT-116 it was 0.55 µM.

In the case of `O=C(CCc1cccc2c1B(O)OC2)Nc1cccc(-c2cccc(OC(F)(F)F)c2)c1`, the IC50 stood at 0.46 µM with SK-OV-3, 9.8 µM with WI-38, 0.46 µM in the assay with MDA-MB-231 and 0.31 µM in the assay with HCT-116.

Consider `COc1cccc2c1C(=O)c1c(O)c3c(c(O)c1C2=O)C[C@@](O)(C(=O)CO)C[C@@H]3O[C@H]1C[C@H](N)[C@H](O)[C@H](C)O1` [DOXORUBICIN], for which the IC50 came to 0.032 µM with SK-OV-3, 0.59 µM with WI-38, 0.0069 µM with MDA-MB-231 and 0.023 µM with HCT-116.

In the case of `O=C(CCc1cccc2c1B(O)OC2)Nc1ccccc1-c1ccccc1`, the IC50 in the assay with SK-OV-3 was 26 µM; with WI-38, 77 µM; in the assay with MDA-MB-231, 18 µM; in the assay on HCT-116, 23 µM.

With `O=C(CCc1cccc2c1B(O)OC2)Nc1cccc(Br)c1`, the IC50 with SK-OV-3 stood at 0.54 µM; with WI-38, 20 µM; with MDA-MB-231, 0.72 µM; in the assay with HCT-116 it was 1.4 µM.

On to `CC(C)(C)NC(=O)CCc1cccc2c1B(O)OC2`, for which the IC50 in the assay on SK-OV-3, with WI-38, with MDA-MB-231 and in the assay with HCT-116 was above 100 µM in each case.

For the molecule `O=C(CCc1cccc2c1B(O)OC2)Nc1cccc(-c2ccc(Cl)cc2)c1`, the IC50 with SK-OV-3 was 0.22 µM; with WI-38, 9.8 µM; with MDA-MB-231, 0.26 µM; with HCT-116, 0.38 µM.

Consider `C#Cc1ccccc1NC(=O)CCc1cccc2c1B(O)OC2`, for which the concentration for half-maximal inhibition (IC50) in the assay with SK-OV-3 turned out to be 0.82 µM; with WI-38, 18 µM; with MDA-MB-231 it was 1.3 µM; with HCT-116 it was 1.4 µM.

`OB1OCc2cc(F)ccc21` [TAVABOROLE]: the IC50 with SK-OV-3 was above 100 µM; in the assay with WI-38 it was 32 µM; in the assay with MDA-MB-231, above 100 µM; in the assay on HCT-116, 65 µM.

For the molecule `O=C(CCc1cccc2c1B(O)OC2)Nc1ccc(F)cc1`, the IC50 in the assay on SK-OV-3 was 0.72 µM; in the assay with WI-38 it was 12 µM; with MDA-MB-231 it was 0.44 µM; with HCT-116, 0.65 µM.

Regarding `CC(=O)c1cccc(-c2cccc(NC(=O)CCc3cccc4c3B(O)OC4)c2)c1`, the IC50 with SK-OV-3 was determined as 0.068 µM; in the assay with WI-38 it was 2.2 µM; with MDA-MB-231, 0.052 µM; with HCT-116 it was 0.086 µM.

Consider `O=C(CCc1cccc2c1B(O)OC2)Nc1cccc(-c2ccc(OC(F)(F)F)cc2)c1`, for which the IC50 was 0.56 µM with SK-OV-3, 25 µM with WI-38, 0.64 µM with MDA-MB-231 and 0.73 µM with HCT-116.

Consider `O=C(CCc1cccc2c1B(O)OC2)Nc1cccc(-c2cccc(Cl)c2)c1`, for which the IC50 in the assay with SK-OV-3 turned out to be 0.3 µM; with WI-38, 58 µM; in the assay with MDA-MB-231, 0.25 µM; with HCT-116, 0.35 µM.

In the case of `O=C(CCc1cccc2c1B(O)OC2)Nc1ccc(-c2ccccc2)cc1`, the IC50 was determined as 48 µM with SK-OV-3, 32 µM in the assay with WI-38, 8.8 µM in the assay with MDA-MB-231 and 13 µM in the assay on HCT-116.

Take `C#Cc1cccc(NC(=O)CCc2cccc3c2B(O)OC3)c1`: the IC50 in the assay on SK-OV-3 is 0.98 µM; in the assay with WI-38, above 100 µM; in the assay on MDA-MB-231, 1.6 µM; in the assay with HCT-116 it was 3.6 µM.

Consider `O=C(CCc1cccc2c1B(O)OC2)Nc1cccc(-c2cccc(C(F)(F)F)c2)c1`, for which the IC50 in the assay on SK-OV-3 was 0.39 µM; in the assay on WI-38, 23 µM; in the assay with MDA-MB-231, 0.41 µM; with HCT-116, 0.58 µM.

On to `CC(C)(C)c1ccc(NC(=O)CCc2cccc3c2B(O)OC3)cc1`, for which the IC50 is 4.2 µM with SK-OV-3, 55 µM with WI-38, 33 µM with MDA-MB-231 and 19 µM with HCT-116.

For `Cc1ccc(NC(=O)CCc2cccc3c2B(O)OC3)cc1Br`, the IC50 was 0.6 µM in the assay on SK-OV-3, 15 µM with WI-38, 0.87 µM in the assay with MDA-MB-231 and 1.2 µM in the assay on HCT-116.

Regarding `Cc1ccc(NC(=O)CCc2cccc3c2B(O)OC3)cc1`, the IC50 in the assay on SK-OV-3 was 0.86 µM; in the assay with WI-38, above 100 µM; with MDA-MB-231, 1.1 µM; with HCT-116, 4.5 µM.

Turning to `COc1cc(OC)cc(-c2cccc(NC(=O)CCc3ccc4c(c3)COB4O)c2)c1`, the IC50 is 93 µM in the assay with SK-OV-3, above 100 µM with WI-38, 77 µM in the assay on MDA-MB-231 and 56 µM in the assay on HCT-116.

For `COc1ccc(NC(=O)CCc2cccc3c2B(O)OC3)cc1OC`, the IC50 with SK-OV-3, in the assay on WI-38, in the assay with MDA-MB-231 and with HCT-116 was above 100 µM each time.

On to `COc1ccccc1NC(=O)CCc1cccc2c1B(O)OC2`, for which the IC50 with SK-OV-3 was 0.2 µM; in the assay with WI-38, 1.6 µM; with MDA-MB-231, 0.93 µM; in the assay with HCT-116 it was 0.43 µM.

In the case of `O=C(CCc1cccc2c1B(O)OC2)NCc1ccccc1`, the IC50 in the assay with SK-OV-3, with WI-38, with MDA-MB-231 and in the assay with HCT-116 was above 100 µM throughout.

Turning to `N#Cc1cccc(-c2cccc(NC(=O)CCc3cccc4c3B(O)OC4)c2)c1`, the IC50 came out at 0.12 µM with SK-OV-3, 7.3 µM in the assay on WI-38, 0.11 µM with MDA-MB-231 and 0.14 µM in the assay with HCT-116.

As to `CSc1ccc(-c2cccc(NC(=O)CCc3cccc4c3B(O)OC4)c2)cc1`, the IC50 in the assay with SK-OV-3 came out at 0.14 µM; in the assay on WI-38, 3.8 µM; in the assay on MDA-MB-231, 0.14 µM; with HCT-116 it was 0.18 µM.

Turning to `CC(=O)c1ccc(-c2cccc(NC(=O)CCc3cccc4c3COB4O)c2)cc1`, the IC50 in the assay with SK-OV-3 is 57 µM; in the assay with WI-38 it was above 100 µM; with MDA-MB-231 it was 41 µM; with HCT-116, 48 µM.

As to `COc1cccc(-c2cccc(NC(=O)CCc3cccc4c3C(O)OC4)c2)c1` (centres undefined), the IC50 in the assay with SK-OV-3 was 61 µM; in the assay with WI-38 it was 93 µM; with MDA-MB-231 it was 52 µM; with HCT-116, 49 µM.

For the molecule `O=C(CCc1cccc2c1B(O)OC2)Nc1nccs1`, the IC50 with SK-OV-3, with WI-38, in the assay with MDA-MB-231 and in the assay with HCT-116 was above 100 µM each time.

For `CC(=O)c1ccc(-c2cccc(NC(=O)CCc3ccc4c(c3)B(O)OC4)c2)cc1`, the IC50 is above 100 µM in the assay with SK-OV-3, above 100 µM with WI-38, 59 µM in the assay on MDA-MB-231 and 19 µM with HCT-116.

Turning to `COc1cc(OC)cc(-c2cccc(NC(=O)CCc3cccc4c3COB4O)c2)c1`, the IC50 is 88 µM in the assay with SK-OV-3, above 100 µM in the assay on WI-38, 93 µM with MDA-MB-231 and 50 µM in the assay with HCT-116.

With `O=C(CCc1cccc2c1B(O)OC2)Nc1ccc([N+](=O)[O-])cc1`, the IC50 in the assay with SK-OV-3 was 83 µM; with WI-38 it was above 100 µM; in the assay on MDA-MB-231 it was 36 µM; in the assay with HCT-116, above 100 µM.

Take `O=C(CCc1cccc2c1B(O)OC2)Nc1cccc(I)c1`: the IC50 with SK-OV-3 amounted to 0.63 µM; in the assay with WI-38, 71 µM; in the assay with MDA-MB-231, 5.3 µM; in the assay with HCT-116 it was 2.3 µM.

With `O=C(CCc1cccc2c1B(O)OC2)Nc1ccc(Cl)cc1`, the concentration for half-maximal inhibition (IC50) in the assay on SK-OV-3 was 5 µM; in the assay with WI-38, above 100 µM; in the assay with MDA-MB-231, 3.6 µM; in the assay on HCT-116, 12 µM.

Consider `COc1cccc(-c2cccc(NC(=O)CCc3ccc4c(c3)B(O)OC4)c2)c1`, for which the IC50 with SK-OV-3 is 62 µM; in the assay with WI-38, above 100 µM; in the assay with MDA-MB-231, 49 µM; in the assay with HCT-116, 21 µM.

As for `COc1cc(OC)cc(-c2cccc(NC(=O)CCc3ccccc3)c2)c1`, the concentration for half-maximal inhibition (IC50) in the assay on SK-OV-3 was above 100 µM; with WI-38, above 100 µM; in the assay on MDA-MB-231, 87 µM; in the assay on HCT-116, above 100 µM.

Turning to `CC(=O)c1ccc(-c2cccc(NC(=O)CCc3cccc4c3C(O)OC4)c2)cc1` (centres undefined), the IC50 in the assay with SK-OV-3 was 41 µM; with WI-38, above 100 µM; in the assay on MDA-MB-231, 29 µM; in the assay on HCT-116 it was 18 µM.

For `COc1cc(OC)cc(-c2cccc(NC(=O)CCc3cccc4c3B(O)OC4)c2)c1`, the IC50 in the assay on SK-OV-3 turned out to be 0.044 µM; with WI-38, 1.7 µM; in the assay with MDA-MB-231 it was 0.04 µM; in the assay on HCT-116 it was 0.053 µM.

Turning to `CC(C)(C)OC(=O)Nc1ccc(NC(=O)CCc2cccc3c2B(O)OC3)cc1`, the IC50 in the assay with SK-OV-3 was above 100 µM; in the assay on WI-38, above 100 µM; in the assay with MDA-MB-231, 29 µM; in the assay on HCT-116 it was 24 µM.

As to `COc1cccc(-c2cccc(NC(=O)CCc3cccc4c3COB4O)c2)c1`, the IC50 with SK-OV-3 is 78 µM; with WI-38, above 100 µM; in the assay on MDA-MB-231, 76 µM; in the assay with HCT-116, 46 µM.

As for `COc1ccc(-c2cccc(NC(=O)CCc3cccc4c3B(O)OC4)c2)cc1`, the IC50 amounted to 0.048 µM in the assay with SK-OV-3, 1.4 µM with WI-38, 0.088 µM in the assay on MDA-MB-231 and 0.16 µM in the assay with HCT-116.

For `O=C(CCc1cccc2c1B(O)OC2)Nc1ccc2ccccc2c1`, the IC50 in the assay with SK-OV-3 was 1.4 µM; in the assay on WI-38, above 100 µM; in the assay with MDA-MB-231, 1.8 µM; in the assay on HCT-116, 1.7 µM.

Consider `COc1cccc(-c2cccc(NC(=O)CCc3ccccc3)c2)c1`, for which the IC50 with SK-OV-3 was 24 µM; with WI-38, above 100 µM; with MDA-MB-231 it was 25 µM; with HCT-116, 40 µM.

Consider `CC(=O)c1ccc(-c2cccc(NC(=O)CCc3ccc4c(c3)COB4O)c2)cc1`, for which the IC50 in the assay with SK-OV-3 is 79 µM; with WI-38, above 100 µM; in the assay on MDA-MB-231 it was 66 µM; in the assay with HCT-116, 63 µM.
